ChEMBL document CHEMBL1121589, “Synthesis and biological activities of 5-(hydroxymethyl, azidomethyl, or aminomethyl)-2'-deoxyuridine and related 5'-substituted analogues” (J Med Chem, 1980)

Tests used:
Format in all cases: functional
[1] = test system: Human alphaherpesvirus 1; test: Kinetic inhibition constant against herpes simplex virus type I pyrimidine deoxyribonucleoside kinase was measured
[2] = test system: Human alphaherpesvirus 1; test: Antiviral activity against herpes simplex virus type I was measured at 200 uM concentration.
[3] = test system: Human alphaherpesvirus 1; test: Antiviral activity against herpes simplex virus type I was measured at 400 uM concentration.
[4] = test system: L1210; test: Compound tested for inhibition of the replication of L1210 cells in cell culture at 7 uM; settings: Mus musculus
[5] = test system: L1210; test: Compound tested for inhibition of the replication of L1210 cells in cell culture; settings: Mus musculus, read-out: ED50 (the source's name)
[6] = Inhibitory activity against growth of sarcoma 180 cells at 1 uM; settings: Mus musculus, read-out: ED50 (the source's name)
[7] = test system: L1210; test: Compound tested for inhibition of the replication of L1210 cells in cell culture at 200 uM; settings: Mus musculus
[8] = test system: Human alphaherpesvirus 1; test: Antiviral activity against herpes simplex virus type I was measured at 5 uM concentration.

Compound `[N-]=[N+]=NC[C@H]1O[C@@H](n2cc(CO)c(=O)[nH]c2=O)C[C@@H]1O` has a Ki [1] of 31 µM and a Control [2] of 100%.
`NCc1cn([C@H]2C[C@H](O)[C@@H](CN)O2)c(=O)[nH]c1=O` showed a Ki [1] greater than 500 µM and a Control [3] of 100%.
`NCc1cn([C@H]2C[C@H](O)[C@@H](CO)O2)c(=O)[nH]c1=O` showed an inhibition at 7 µM [4] of 93%, an EC50 [5] of 2 µM and a Ki [1] of 36 µM. For the same compound, the Control [3] was 100% and the EC50 [6] was 0.16 µM.
Compound `[N-]=[N+]=NCc1cn([C@H]2C[C@H](O)[C@@H](CN=[N+]=[N-])O2)c(=O)[nH]c1=O` has a Ki [1] of 62 µM and a Control [3] of 100%.
In the case of `NC[C@H]1O[C@@H](n2cc(CO)c(=O)[nH]c2=O)C[C@@H]1O`, the Ki [1] is reported as 530 µM and the Control [3] is reported as 100%.
`[N-]=[N+]=NCc1cn([C@H]2C[C@H](O)[C@@H](CO)O2)c(=O)[nH]c1=O` gave an EC50 [5] of 90 µM, a Ki [1] of 0.8 µM and an inhibition at 200 µM [7] of 96%. For the same compound, the Control [2] was 0.5%.
With `O=c1[nH]c(=O)n([C@H]2C[C@H](O)[C@@H](CO)O2)cc1CO` the Ki [1] was 3.5 µM and the Control [2] was 0.05%.
Work on `O=c1[nH]c(=O)n([C@H]2C[C@H](O)[C@@H](CO)O2)cc1I` [IDOXURIDINE] yielded a Control [8] of 2% and a Ki [1] of 0.4 µM.
